Earlier results, collected in patent US20160015722A1, “TREATMENT OF ENDOMETRIOSIS” (priority 2014, published 2016).

System: FSH (Follicle Stimulating Hormone) and LH (Leutinizing Hormone) release from the pituitary
Conditions: for FSH and LH release from the pituitary gland: previous hormonal treatments of endometriosis

Compound	FSH and LH release from the pituitary (nandrolone used alone)	FSH and LH release from the pituitary gland
C[C@]12CC[C@H]3[C@@H](CCC4=CC(=O)CC[C@@H]43)[C@@H]1CC[C@@H]2O [Nandrolone, nandrolone]	suppresses	–
C#C[C@]1(O)CC[C@H]2[C@@H]3CCC4=Cc5oncc5C[C@]4(C)[C@H]3CC[C@@]21C [danazol]	–	suppress
luprolide acetate	–	suppress
